Experimental data taken from patent US9049874B2, “Use of azaperone for reducing antibiotic usage” (Elanco Animal Health Ireland Limited, priority 2008, dated 2015).

System: weaned pigs
Assay: Preclinical study of the effects of azaperone administered via drinking water: therapeutic usage of antibiotics
Assay type: in vivo
Settings: for number of pigs treated (therapeutic use of antibiotics): 6 mg azaperone per liter drinking water for first 3 days
Protocol: The study was performed in weaned pigs to investigate the effect of azaperone that was continuously orally administered via drinking water on postweaning diarrhoea and associated usage of antibiotics, behaviour, feed conversion, growth and homogeneity of growth. Groups of approximately 250 pigs were enrolled in the study starting from the moment they were weaned. The pigs were housed according to everyday farming conditions in a conventional pig farm. All pigs were housed in similar buildings. Each group was housed in 2 compartments, gilts and barrows were housed in separate compartments. Pigs were kept in pens of approximately 12 individuals each. After weaning, the piglets were housed in continuous artificial light for the first 48 hours. Afterwards, pigs were housed in continuous darkness for the further duration of the study, except during observations (twice a day). During the course of the study, pigs were not vaccinated. A metaphylactic colistine treatment via drinking water was applied in each group starting from the fifth day after weaning. Treatment continued for seven days. Pigs were fed ad libitum. Troughs were filled automatically with a computerized system that records the supplied weight of feed per pen. During the first ten days of the nursery period, pigs were fed a pelleted weaner feed which had also been available to the piglets in the farrowing unit. Between the 10th and 15th day at the nursery, the weaner feed was gradually replaced by grower pellets which have been given until the 35th day. Finally a switch was made between the 35th and the 40th day from grower pellets to starter pellets. Tap water was available during the whole period of the study and was supplied via a water nipple in the feeding trough. The drinking water comprising azaperone was obtained by diluting Stresnil™ injection in water to obtain a concentration of 6 mg azaperone per liter drinking water. A primary dilution was prepared by diluting 90 ml of Stresnil™ 4% injectable solution with tap water to obtain 6 liters of preparation. This primary dilution was linked for 24 hours with an automatic dosing system which continuously diluted the preparation in the drinking water at a rate of 1 to 100. One preparation of the primary dilution was sufficient to treat 600 liters of drinking water which exceeded the anticipated daily consumed volume of water by the pigs in one compartment. The two following days, a new primary dilution was made fresh each morning and linked to the automatic dosing system for 24 hours. This study was a controlled parallel study with 4 sequential groups of approximately 250 weaned pigs each. The first and third group were treated with azaperone via the drinking water for 3 consecutive days. The second and fourth group were control groups treated with placebo (plain drinking water). [table] On day one of the test period, water containing 6 mg azaperone per liter or placebo, was made available. Starting from the fourth day, the drinking water no longer contained azaperone. All pigs followed the normal procedures for further fattening. No pigs were brought to the slaughterhouse during the study (3 days dosing and 39 days follow-up). In order to assess the effect of the oral azaperone administration on the onset of postweaning diarrhoea and concomittant therapeutic usage of antibiotics, the occurrence of diarrhoea was followed in groups 1 to 4 and recorded daily by the Principal Investigator. All individual pens were checked by the Principal Investigator and a diarrhoea score was noted as follows: Any use of antibiotics in groups 1 to 4 was recorded the first three weeks after weaning and grouping of the animals. The decision to treat an animal with antibiotics was made by the Principal Investigator according to everyday practice on that farm.

[1] = during the nursery period, azaperone-treated group

## O=C(CCCN1CCN(c2ccccn2)CC1)c1ccc(F)cc1 [azaperone]
6 mg/liter water during first three days of 42 day test period
  usage of antibiotics compared to placebo-treated groups: significant reduction of the usage of antibiotics
6 mg/liter water during first three days of 42 day test period, vs. 29 in placebo
  number of piglets treated with antibiotics (conclusion): 11
6 mg/liter water during first three days of 42 day test period, vs. 33 in placebo
  number of individual antibiotic treatments (conclusion): 13
[1]
  number of ampicilline injections: 1
  number of enrofloxacine injections: 4
  number of oxytetracycline injections: 2
  number of piglets treated with antibiotics for curative reasons: 7 piglets
  total number of individual injections with antibiotics: 7 injections
Week 1 after weaning
  number of pigs treated (therapeutic use of antibiotics): 4
Week 2 after weaning
  number of pigs treated (therapeutic use of antibiotics): 3
Week 3 after weaning
  number of pigs treated (therapeutic use of antibiotics): 0
